Here are results for 5 compounds from patent US11716994B2, “Combinations of Yersinia entomophaga and pesticides or other substances” (priority 2017, dated 2023).

One data set deals with Yersinia entomophaga. As to the kind of experiment: CFU counts after exposure of Yersinia entomophaga to insecticides. In kind it is cell-based. As to conditions: 1 hour contact. The text has this:
To test combinations of Yersinia entomophaga and pesticides for their ability to produce a pesticidal effect, or an effect on plant growth or yield, we first put various insecticides in contact with Yersinia to identify insecticides that had minimal toxicity to Yersinia entomophaga. The logic was that, if Yersinia entomophaga is to function well in combination with a chemical insecticide, the chemical insecticide would ideally have low or no effect on the ability of Yersinia entomophaga to survive, grow and/or to function.
To perform this study, we selected amounts of various insecticides based on the percent of the specific insecticide in the insecticide composition obtained from a manufacturer. We also considered the application rate of the particular insecticide, as recommended by the manufacturer. […] Generally, the 1× amount was considered possibly the lowest amount of insecticide that may be considered as an effective amount for use in the combinations disclosed herein. For each insecticide, we also used a higher amount of insecticide (generally a 5× or 10× amount).
The 1× and 5×/10× amounts of each insecticide were added to tubes along with 1 ml of ethyl acetate. The tubes were mixed until the insecticides dissolved. The tubes were left open in a fume hood overnight to allow the ethyl acetate to evaporate. The insecticide remained in the tubes, as a solid coat on the interior surface of the tubes.
A growing culture of Yersinia entomophaga, grown in LB medium, was diluted and 1 ml of the diluted culture was added to each tube containing the dried insecticide. The tubes were mixed and then left on the bench top for 1 hour. Then, 100 μl from each tube was plated onto LB plates in triplicate in CFU assays. Plates were incubated at 25° C. for 48 hours and colonies were counted.

Data set [1] relates to cabbage looper.
Data set [2] concerns cabbage looper. As to conditions: for LT50 Chem. / % Mort. Chem.: Cabbage Looper.
The subject of data set [3] is cabbage looper. As to the kind of experiment: whole plant or invertebrate. As to conditions: Trichoplusia ni, foliar.
Data set [4] relates to black cutworm. The data set is described as follows: Leaf disk mortality assay, Y. entomophaga cells with chemical insecticides.
A further data set has as its system diamondback moth. The data set is described as follows: whole plant or invertebrate. As to conditions: indoxacarb […].
Source text: (§1) These were set to dry for 1 hr.
as §1
These were set to dry for 1 hr. Cabbage disks were then dipped in either 1% Luria broth (LB) media solution (controls and thiacloprid alone treatments) or in 1% cell free filtrate from a culture Y. entomophaga isolate O24G3R (Y. entomophaga alone or in combination with thiacloprid treatments).

Data set [5] relates to black cutworm. As to conditions: indoxacarb 0.53 mg/L.
Procedure: To produce cell free filtrates, cultures of Yersinia entomophaga grown in LB medium were centrifuged at 11,448 (g) for 10 minutes. The supernatant was decanted from the centrifuged pellet and filtered through a 0.22 μm filter. Assays were performed to determine concentrations of Yen-TC (toxin complex) using ELISA, and chitinase by measuring chitinase activity on specific substrates. […] This was done to estimate relative potency of the cell free filtrates. Insects were first pre-screened with a range of dilutions of cell free filtrates to select a concentration that provided moderate activity. […] Based on these initial screens, undiluted cell free filtrate was used for cabbage looper, fall armyworm, black cutworm, and Colorado potato beetle. […] In each of the Examples below, this is expressed as 1%.
Cabbage leaf disks were dipped in either acetone (controls and Y. entomophaga alone treatments) or in indoxacarb (Sigma 33969) at 0.53 mg/L in acetone. These were set to dry for 1 hr. […] After the cabbage disks had dried for 1 hr, a single 2nd instar black cutworm was added to each individual cabbage disk. A total of 20 insects were evaluate for each treatment. Insects were observed daily and scored as live or dead.
Cabbage leaf disks were dipped in either acetone (controls and Y. entomophaga alone treatments) or in flubendiamide (Sigma 32801) at 0.59 mg/L in acetone. These were set to dry for 1 hr. […] After the cabbage disks had dried for 1 hr, a single 2nd instar black cutworm was added to each individual cabbage disk. A total of 20 insects were evaluate for each treatment. Insects were observed daily and scored as live or dead.
Data set [6] concerns fall armyworm. The data set is described as follows: Leaf disk mortality assay, Y. entomophaga cells with chemical insecticides. As to conditions: for % Mort. Chem. / LT50 Chem.: fall armyworm; for mortality at 4 µg/mL: Spodoptera frugiperda, foliar.
In data set [7] the test system is fall armyworm. As to conditions: fipronil 12 mg/L.
Procedure: To produce cell free filtrates, cultures of Yersinia entomophaga grown in LB medium were centrifuged at 11,448 (g) for 10 minutes. The supernatant was decanted from the centrifuged pellet and filtered through a 0.22 μm filter. Assays were performed to determine concentrations of Yen-TC (toxin complex) using ELISA, and chitinase by measuring chitinase activity on specific substrates. […] This was done to estimate relative potency of the cell free filtrates. Insects were first pre-screened with a range of dilutions of cell free filtrates to select a concentration that provided moderate activity. […] Based on these initial screens, undiluted cell free filtrate was used for cabbage looper, fall armyworm, black cutworm, and Colorado potato beetle.
Cabbage leaf disks were dipped in either acetone (controls and Y. entomophaga alone treatments) or fipronil (Sigma 46451) at 12 mg/L in acetone. These were set to dry for 1 hr. […] After the cabbage disks had dried for 1 hr, a single 3rd instar fall armyworm was added to each individual cabbage disk. A total of 20 insects were evaluated for each treatment. Insects were observed daily and scored as live or dead.
Cabbage leaf disks were dipped in either acetone (controls and Y. entomophaga alone treatments) or esfenvalerate (Sigma 46277) at 56 mg/L in acetone. These were set to dry for 1 hr. […] After the cabbage disks had dried for 1 hr, a single 3rd instar fall armyworm was added to each individual cabbage disk. A total of 20 insects were evaluate for each treatment. Insects were observed daily and scored as live or dead.
[8] abbreviates: 3rd instar, indoxacarb 0.53 mg/L, isolate O43NEW 1×10^6 cfu/mL.
Setting [9] is: 3rd instar, indoxacarb 0.53 mg/L, isolate O43NEW 1×10^4 cfu/mL.

Several values for one entry are separate records, joined by “and”; a condition that tells them apart may be missing. Equal values may be shown once. Read-outs that look alike come from different tables or passages of the source.

As usually defined, the mortality is the share of the test organisms that died. Consider `O=C(NC(=O)c1c(F)cccc1F)Nc1ccc(OC(F)(F)C(F)OC(F)(F)F)c(Cl)c1` (centres unmarked) [Novaluron], for which the “Average CFU” value in the data set with Yersinia entomophaga (0.1 mg insecticide) turned out to be 528 CFU; in the data set with Yersinia entomophaga (1.0 mg insecticide), 452 CFU. Further, the “% Mort. Chem.” value with cabbage looper [1] (cabbage looper, Novaluron 1 mg/L, 5 DAT) is listed as 11%; in the data set on cabbage looper [2] (novaluron 1 mg/L, 6 DAT), 0%. Further, the “LT50 Chem.” value in the data set with cabbage looper [1] (cabbage looper, Novaluron alone 1 mg/L) worked out at 7.55 days; in the data set on cabbage looper [2] (novaluron 1 mg/L), 7.31 days; in the data set on black cutworm [4] (black cutworm, Novaluron alone […]) it was 9.40 days. Also, the “LT50 (95% confidence intervals) in days” value with cabbage looper [1] (in vivo) is given as 7.55 (7.01-8.13) days; in the data set on black cutworm [4] (3rd instar, novaluron […], isolate O43NEW 1×10^4 cfu/mL) it was 9.40 (8.58-10.32) days. Further, the mortality at 1 µg/mL in the data set on cabbage looper [3] (120 h, read-out: % Mortality (5DAT)) is 11%; in the data set on cabbage looper [3] (144 h, read-out: % Mortality (6DAT)), 21%.

On to `CNC(=O)ON=C(C)SC` [Methomyl], for which the “Average CFU” value with Yersinia entomophaga (0.3 mg insecticide) is reported as 192 CFU; in the data set on Yersinia entomophaga (3.4 mg insecticide), 0 CFU. For the same compound, the “LT50 Chem.” value in the data set with cabbage looper [1] (cabbage looper, Methomyl alone 30 mg/L) was 5.84 days. Also, the “% Mort. Chem.” value in the data set on cabbage looper [1] (in vivo) is 12%. In the data set with cabbage looper [1] (in vivo), the “LT50 (95% confidence intervals) in days” value was 5.84 (4.99-6.88) days. The mortality at 30 µg/mL was found to be 4% with cabbage looper [3] (24 h, read-out: % Mortality (1DAT)) and 12% in the data set with cabbage looper [3] (48 h, read-out: % Mortality (2DAT)).

With `CNC(=O)Oc1cccc2ccccc12` [Carbaryl], the entries for the “Average CFU” value with Yersinia entomophaga (1.0 mg insecticide) and in the data set on Yersinia entomophaga (9.6 mg insecticide) were 456 CFU and 459 CFU, respectively. Moreover, the “% Mort. Chem.” value with cabbage looper [1] (cabbage looper, Carbaryl 100 mg/L, 2 DAT) came out at 21%; in the data set with tobacco budworm (tobacco budworm, Carbaryl 100 mg/L, 4 DAT), 50%. Further, the “LT50 Chem.” value stood at 3.60 days with cabbage looper [1] (cabbage looper, Carbaryl alone 100 mg/L) and 4.06 days in the data set with tobacco budworm (tobacco budworm, Carbaryl alone 100 mg/L). The “% Mortality (1DAT)” value with cabbage looper [1] (in vivo) stood at 4%. In the data set with cabbage looper [1] (in vivo), the “% Mortality (2DAT)” value is 21%. For the same compound, the “LT50 (95% confidence intervals) in days” value with cabbage looper [1] (in vivo) is 3.60 (3.12-4.17) days; in the data set with tobacco budworm (in vivo) it was 4.06 (3.65-4.52) days. Besides, the “% Mortality (4DAT)” value with tobacco budworm (in vivo) is 50%. Also, the “% Mortality (5DAT)” value in the data set with tobacco budworm (in vivo) was 65%.

Turning to `COC(=O)N(C(=O)N1CO[C@@]2(C(=O)OC)Cc3cc(Cl)ccc3C2=N1)c1ccc(OC(F)(F)F)cc1` [Indoxacarb], the “Average CFU” value amounted to 452 CFU with Yersinia entomophaga (0.2 mg insecticide) and 477 CFU in the data set with Yersinia entomophaga (1.1 mg insecticide). Besides, the “LT50 (95% confidence intervals)” value in the data set with diamondback moth (2nd instar diamondback moth, O43NEW filtrate 1%, alone or combined) amounted to 3.47 days; in the data set with fall armyworm [6] (setting [8]), 9.65 days. The “LT50 Chem.” value in the data set with diamondback moth (Diamondback moth) was found to be 3.47 days; in the data set with cabbage looper [2] (indoxacarb 0.53 mg/L), 11.98 days; with black cutworm [5] (Black cutworm), 10.99 days; with fall armyworm [6] (Indoxacarb alone 0.53 mg/L), 9.65 days; with fall armyworm [6] (Indoxacarb alone […]), 5.14 days; in the data set on black cutworm [4] (black cutworm, Indoxacarb alone 0.53 mg/L) it was 7.64 days. Besides, the “% Mort. Chem.” value was 25% in the data set with cabbage looper [2] (indoxacarb 0.53 mg/L, 9 DAT); 21% with black cutworm [5] (Black cutworm, 9 DAT); 10% in the data set on fall armyworm [6] (Indoxacarb 0.53 mg/L, 6 DAT); 0% in the data set on black cutworm [4] (black cutworm, Indoxacarb 0.53 mg/L, 5 DAT). Also, the “% Mortality (2DAT)” value in the data set on cabbage looper [2] (cabbage looper, indoxacarb 0.53 mg/L, undiluted O43NEW filtrate, 2 DAT, Abbott's corrected) is recorded as 0%; with black cutworm [5] (2nd instar black cutworm, O43NEW undiluted filtrate, alone or combined, 2 DAT, Abbott's corrected), 0%. Further, the “% Mortality (6DAT)” value with cabbage looper [2] (cabbage looper, indoxacarb 0.53 mg/L, undiluted O43NEW filtrate, 6 DAT, Abbott's corrected) turned out to be 15%; in the data set on black cutworm [5] (2nd instar black cutworm, O43NEW undiluted filtrate, alone or combined, 6 DAT, Abbott's corrected), 0%; in the data set with fall armyworm [6] (setting [8]) it was 10%; in the data set with black cutworm [4] (setting [9]), 6%. The “% Mortality (7DAT)” value in the data set with cabbage looper [2] (cabbage looper, indoxacarb 0.53 mg/L, undiluted O43NEW filtrate, 7 DAT, Abbott's corrected) came to 15%. The “% Mortality (8DAT)” value was determined as 25% with cabbage looper [2] (cabbage looper, indoxacarb 0.53 mg/L, undiluted O43NEW filtrate, 8 DAT, Abbott's corrected) and 11% in the data set with black cutworm [5] (2nd instar black cutworm, O43NEW undiluted filtrate, alone or combined, 8 DAT, Abbott's corrected). For the same compound, the “% Mortality (9DAT)” value in the data set on cabbage looper [2] (cabbage looper, indoxacarb 0.53 mg/L, undiluted O43NEW filtrate, 9 DAT, Abbott's corrected) came to 25%; in the data set with black cutworm [5] (2nd instar black cutworm, O43NEW undiluted filtrate, alone or combined, 9 DAT, Abbott's corrected) it was 21%. Moreover, the “% Mortality (12DAT)” value with cabbage looper [2] (cabbage looper, indoxacarb 0.53 mg/L, undiluted O43NEW filtrate, 12 DAT, Abbott's corrected) is given as 61%. Besides, the “% Mortality (14DAT)” value in the data set with cabbage looper [2] (cabbage looper, indoxacarb 0.53 mg/L, undiluted O43NEW filtrate, 14 DAT, Abbott's corrected) is 59%. For the same compound, the “LT50 (95% confidence intervals) in days” value with black cutworm [5] (2nd instar black cutworm, O43NEW undiluted filtrate, alone or combined) was 10.99 (9.75-12.42) days; in the data set on fall armyworm [6] (3rd instar, indoxacarb […], isolate O23ZMJ 1×10^5 cfu/mL) it was 5.14 (4.67-5.66) days; with black cutworm [4] (setting [9]), 7.64 (7.01-8.32) days. Also, the “% Mortality (5DAT)” value with fall armyworm [6] (setting [8]) was 5%; in the data set on black cutworm [4] (setting [9]), 0%. Moreover, the “% Mortality (3DAT)” value in the data set on black cutworm [4] (setting [9]) is listed as 11%. In addition, in the data set on black cutworm [4] (setting [9]), the “% Mortality (4DAT)” value is given as 6%.

For the compound `N#Cc1nn(-c2c(Cl)cc(C(F)(F)F)cc2Cl)c(N)c1[S+]([O-])C(F)(F)F` (centres unmarked) [Fipronil], the “LT50 (95% confidence intervals) in days” value with fall armyworm [7] (3rd instar fall armyworm, O43NEW undiluted filtrate, alone or combined) is 51.74 (34.99-79.58) days; with fall armyworm [6] (3rd instar, fipronil 4 mg/L, isolate O24G3R 1×10^5 cfu/mL), 6.71 (6.15-7.32) days; with fall armyworm [6] (3rd instar, fipronil 4 mg/L, isolate O24KEK 1×10^5 cfu/mL) it was 6.71 (6.15-7.31) days; with fall armyworm [6] (3rd instar, fipronil 4 mg/L, isolate O333A4 1×10^5 cfu/mL), 6.71 (6.15-7.31) days. The “LT50 Chem.” value in the data set on fall armyworm [7] (Fall armyworm) was 51.74 days; with fall armyworm [6] (Fipronil alone 4 mg/L), 8.86 days and 6.71 days. Also, the “% Mort. Chem.” value with fall armyworm [7] (Fall armyworm, 8 DAT) is listed as 0%; with fall armyworm [6] (Fipronil 4 mg/L, 4 DAT (row with O24KEK)) it was 5%; in the data set on fall armyworm [6] (Fipronil 4 mg/L, 4 DAT (row with O333A4)), 5%; with fall armyworm [6] (Fipronil 4 mg/L, 5 DAT (row with O24G3R)), 21%; with fall armyworm [6] (Fipronil 4 mg/L, 5 DAT (row with O43NEW)), 5%. Further, the “LT50 (95% confidence intervals)” value with fall armyworm [6] (3rd instar, fipronil 4 mg/L, isolate O43NEW 1×10^5 cfu/mL) was found to be 8.86 days. Also, the mortality at 4 µg/mL worked out at 5% in the data set on fall armyworm [6] (96 h, read-out: % Mortality (4DAT), 3rd instar, fipronil 4 mg/L, isolate O24G3R 1×10^5 cfu/mL); 5% in the data set with fall armyworm [6] (96 h, read-out: % Mortality (4DAT), 3rd instar, fipronil 4 mg/L, isolate O24KEK 1×10^5 cfu/mL); 5% in the data set on fall armyworm [6] (96 h, read-out: % Mortality (4DAT), 3rd instar, fipronil 4 mg/L, isolate O333A4 1×10^5 cfu/mL); 21% in the data set with fall armyworm [6] (120 h, read-out: % Mortality (5DAT), 3rd instar, fipronil 4 mg/L, isolate O24G3R 1×10^5 cfu/mL); 21% in the data set with fall armyworm [6] (120 h, read-out: % Mortality (5DAT), 3rd instar, fipronil 4 mg/L, isolate O24KEK 1×10^5 cfu/mL); 5% in the data set on fall armyworm [6] (120 h, read-out: % Mortality (5DAT), 3rd instar, fipronil 4 mg/L, isolate O43NEW 1×10^5 cfu/mL). Moreover, the mortality at 4 µg/mL in the data set on fall armyworm [6] (120 h, read-out: % Mortality (5DAT), 3rd instar, fipronil 4 mg/L, isolate O333A4 1×10^5 cfu/mL) was 21%; in the data set with fall armyworm [6] (144 h, read-out: % Mortality (6DAT), 3rd instar, fipronil 4 mg/L, isolate O24KEK 1×10^5 cfu/mL), 39%; with fall armyworm [6] (144 h, read-out: % Mortality (6DAT), 3rd instar, fipronil 4 mg/L, isolate O43NEW 1×10^5 cfu/mL), 20%; with fall armyworm [6] (144 h, read-out: % Mortality (6DAT), 3rd instar, fipronil 4 mg/L, isolate O333A4 1×10^5 cfu/mL) it was 39%.
